Experiment: PK of compound of Formula (Ia) after single subcutaneous dose of solution formulations in Wistar Han rats
Type: in vivo
Details: male, Wistar Han, rat, plasma, sc, 50 mg/kg, SC 50 mg/kg
Description: Formulations containing the compound of Formula (Ia), or a pharmaceutically acceptable salt thereof, were prepared as solutions and optionally administered subcutaneously or intramuscularly to rats, rabbits, and/or dogs.
A solution of about 400 mg/mL of the compound of Formula (Ia) having 19.14 w/w % water, 40.66 w/w % PEG 300, 35.20 w/w % of a sodium salt of a compound of Formula (Ia), and 5.00% ethanol was prepared. The solution was administered subcutaneously to male Wistar Han rats at a dose level of about 50 mg/kg and dose volume of 0.125 mL/kg and the pharmacokinetic (PK) profile was determined.
A solution of about 500 mg/mL of the compound of Formula (Ia) having 16.64 w/w % water, 35.36 w/w % PEG 300, 43.00 w/w % of a sodium salt of a compound of Formula (Ia), and 5.00% ethanol was prepared. The solution was administered subcutaneously to male Wistar Han rats at a dose level of about 50 mg/kg and dose volume of 0.1 mL/kg and the pharmacokinetic (PK) profile was determined.
A solution of about 400 mg/mL of the compound of Formula (Ia) having 17.00 w/w % water, 36.40 w/w % PEG 300, 35.20 w/w % of a sodium salt of a compound of Formula (Ia), 5.00 w/w % ethanol, and 6.40 w/w % poloxamer 188 was prepared. The solution was administered subcutaneously to male beagle dogs at a dose level of about 12 mg/kg and male Wistar Han rats at a dose level of about 50 mg/kg. The pharmacokinetic profiles were determined, and the results for dogs are summarized in Table and Table, while the results for rats are summarized in Table and Table below.
A solution of about 500 mg/mL of the compound of Formula (Ia) having 14.06 w/w % water, 30.12 w/w % PEG 300, […] of a sodium salt of a compound of Formula (Ia), 5.00 w/w % ethanol, and 6.40 w/w % poloxamer 188 was prepared. The solution was administered subcutaneously to male beagle dogs at a dose level of about 12 mg/kg and male Wistar Han rats at a dose level of about 50 mg/kg. The pharmacokinetic profiles were determined, and the results for dogs are summarized in Table and Table, while the results for rats are summarized in Table and Table below.
A solution of about 300 mg/mL of the compound of Formula (Ia) having 23.33 w/w % water, 48.99 w/w % PEG 300, 26.47 w/w % of a sodium salt of a compound of Formula (Ia), and 1.21 w/w % poloxamer 188 was prepared. The solution was administered subcutaneously to male beagle dogs at a dose level of about 6 mg/kg and male Wistar Han rats at a dose level of about 50 mg/kg. The pharmacokinetic profiles were determined, and the results for dogs are summarized in Table and Table, while the results for rats are summarized in Table and Table below.
A solution of about 400 mg/mL of the compound of Formula (Ia) having 18.80 w/w % water, 40.25 w/w % PEG 300, 34.38 w/w % of a sodium salt of a compound of Formula (Ia), 5.00 w/w % ethanol, and 1.57 w/w % poloxamer 188 was prepared. The solution was administered subcutaneously to male beagle dogs at a dose level of about 12 mg/kg and male Wistar Han rats at a dose level of about 50 mg/kg. The pharmacokinetic profiles were determined, and the results for dogs are summarized in Table and Table, while the results for rats are summarized in Table and Table below.
A solution of about 500 mg/mL of the compound of Formula (Ia) having 16.29 w/w % water, 34.88 w/w % PEG 300, 41.92 w/w % of a sodium salt of a compound of Formula (Ia), 5.00 w/w % ethanol, and 1.91 w/w % poloxamer 188 was prepared. The solution was administered subcutaneously to male beagle dogs at a dose level of about 12 mg/kg and male Wistar Han rats at a dose level of about 50 mg/kg. The pharmacokinetic profiles were determined, and the results for dogs are summarized in Table and Table, while the results for rats are summarized in Table and Table below.
A solution of about 400 mg/mL of the compound of Formula (Ia) having 20.90 w/w % water, 44.72 w/w % PEG 300, and 34.38 w/w % of a sodium salt of a compound of Formula (Ia) was prepared. […]

[1] = mean, n = 3 rats, solution R, 400 mg/mL
[2] = mean, n = 3 rats, solution S, 500 mg/mL
[3] = mean, n = 3 rats, solution V, 300 mg/mL
[4] = mean, n = 5 rats, solution T, 400 mg/mL
[5] = mean, n = 5 rats, solution U, 500 mg/mL
[6] = individual rats, solution R, 400 mg/mL
[7] = individual rats, solution S, 500 mg/mL
[8] = individual rats, solution V, 300 mg/mL
[9] = mean (rat #1 NS), solution T, 400 mg/mL
[10] = Wistar Han rats, 400 mg/mL solution AA (6.25% poloxamer 188), Mean n = 4
[11] = Wistar Han rats, 400 mg/mL solution AA (6.25% poloxamer 188), animals #1-#4

CC(C)(C#Cc1ccc(-c2ccc(Cl)c3c(NS(C)(=O)=O)nn(CC(F)(F)F)c23)c([C@H](Cc2cc(F)cc(F)c2)NC(=O)Cn2nc(C(F)(F)F)c3c2C(F)(F)[C@@H]2C[C@H]32)n1)S(C)(=O)=O [compound of Formula (Ia)]
concentration at 672 h [1]: 339 nM
concentration at 672 h [2]: 296 nM
concentration at 672 h [3]: 308 nM
concentration at 672 h [4]: 298 nM
concentration at 672 h [5]: 296 nM
concentration at 840 h [6]: 295 nM
concentration at 840 h [7]: 429 nM
concentration at 840 h [8]: 285 nM
concentration at 840 h [1]: 350 nM
concentration at 840 h [2]: 300 nM
concentration at 840 h [3]: 308 nM
concentration at 840 h [4]: 215 nM
concentration at 840 h [5]: 261 nM
concentration at 1008 h [6]: 303 nM
concentration at 1008 h [1]: 354 nM
concentration at 1008 h [2]: 300 nM
concentration at 1008 h [3]: 258 nM
concentration at 1008 h [4]: 207 nM
concentration at 1008 h [5]: 284 nM
concentration at 1334 h [6]: 296 nM
concentration at 1334 h [7]: 398 nM
concentration at 1334 h [1]: 328 nM
concentration at 1334 h [2]: 300 nM
concentration at 1344 h [8]: 272 nM
concentration at 1344 h [3]: 301 nM
concentration at 1344 h [4]: 159 nM
concentration at 1344 h [5]: 226 nM
concentration at 1680 h [6]: 271 nM
concentration at 1680 h [7]: 342 nM
concentration at 1680 h [8]: 221 nM
concentration at 1680 h [9]: 145 nM
concentration at 1680 h [1]: 277 nM
concentration at 1680 h [2]: 249 nM
concentration at 1680 h [3]: 250 nM
concentration at 1680 h [5]: 198 nM
concentration at 2016 h [6]: 199 nM
concentration at 2016 h [7]: 221 nM
concentration at 2016 h [8]: 138 nM
concentration at 2016 h [9]: 140 nM
concentration at 2016 h [1]: 202 nM
concentration at 2016 h [2]: 171 nM
concentration at 2016 h [3]: 181 nM
concentration at 2016 h [5]: 174 nM
concentration at 2352 h [6]: 183 nM
concentration at 2352 h [7]: 231 nM
concentration at 2352 h [8]: 122 nM
concentration at 2352 h [9]: 117 nM
concentration at 2352 h [1]: 182 nM
concentration at 2352 h [2]: 173 nM
concentration at 2352 h [3]: 165 nM
concentration at 2352 h [5]: 167 nM
concentration at 2688 h [6]: 168 nM
concentration at 2688 h [7]: 171 nM
concentration at 2688 h [8]: 113 nM
concentration at 2688 h [9]: 162 nM
concentration at 2688 h [1]: 154 nM
concentration at 2688 h [2]: 148 nM
concentration at 2688 h [3]: 141 nM
concentration at 2688 h [5]: 108 nM
concentration at 3024 h [6]: 136 nM
concentration at 3024 h [7]: 125 nM
concentration at 3024 h [8]: 81.4 nM
concentration at 3024 h [9]: 131 nM
concentration at 3024 h [1]: 122 nM
concentration at 3024 h [2]: 108 nM
concentration at 3024 h [3]: 99.1 nM
concentration at 3024 h [5]: 102 nM
concentration at 3360 h [6]: 132 nM
concentration at 3360 h [7]: 135 nM
concentration at 3360 h [8]: 81.1 nM
concentration at 3360 h [9]: 117 nM
concentration at 3360 h [1]: 111 nM
concentration at 3360 h [2]: 110 nM
concentration at 3360 h [3]: 77.4 nM
concentration at 3360 h [5]: 88 nM
concentration at 3696 h [7]: 102 nM
concentration at 3696 h [8]: 72.2 nM
concentration at 3696 h [9]: 73.7 nM
concentration at 3696 h [1]: 94.8 nM
concentration at 3696 h [2]: 92 nM
concentration at 3696 h [3]: 68.4 nM
concentration at 3696 h [5]: 70.5 nM
concentration at 4032 h [7]: 118 nM
concentration at 4032 h [8]: 56.6 nM
concentration at 4032 h [9]: 71.5 nM
concentration at 4032 h [1]: 102 nM
concentration at 4032 h [2]: 110 nM
concentration at 4032 h [3]: 52.3 nM
concentration at 4032 h [5]: 65.7 nM
concentration at 4704 h [7]: 62.9 nM
concentration at 4704 h [8]: 35.9 nM
concentration at 4704 h [9]: 44.3 nM
concentration at 4704 h [1]: 69 nM
concentration at 4704 h [2]: 71.5 nM
concentration at 4704 h [3]: 30.2 nM
concentration at 4704 h [5]: 43.1 nM
concentration at 5376 h [9]: 34.4 nM
concentration at 5376 h [1]: 58 nM
concentration at 5376 h [2]: 58.8 nM
concentration at 5376 h [5]: 38.9 nM
concentration at 6048 h [9]: 29 nM
concentration at 6048 h [1]: 30.2 nM
concentration at 6048 h [2]: 45 nM
concentration at 6048 h [5]: 36.2 nM
concentration at 6720 h [9]: 21.5 nM
concentration at 6720 h [1]: 26.3 nM
concentration at 6720 h [2]: 37 nM
concentration at 6720 h [5]: 26.5 nM
concentration at 7392 h [1]: 16.5 nM
concentration at 7392 h [2]: 29.4 nM
concentration at 8064 h [1]: 12.3 nM
concentration at 8064 h [2]: 24.8 nM
concentration at 1 h [10]: 35.9 nM
concentration at 1 h [11]: 29 nM
concentration at 3 h [10]: 69.5 nM
concentration at 3 h [11]: 67.9 nM
concentration at 8 h [10]: 122 nM
concentration at 8 h [11]: 109 nM
concentration at 24 h [10]: 233 nM
concentration at 24 h [11]: 259 nM
concentration at 48 h [10]: 251 nM
concentration at 48 h [11]: 272 nM
concentration at 72 h [10]: 227 nM
concentration at 72 h [11]: 231 nM
concentration at 96 h [10]: 201 nM
concentration at 96 h [11]: 211 nM
concentration at 168 h (Wistar Han rats, 400 mg/mL solution AA (6.25% poloxamer 188), 168 h, Mean n = 4): 141 nM
concentration at 336 h (Wistar Han rats, 400 mg/mL solution AA (6.25% poloxamer 188), 336 h, Mean n = 4): 130 nM
concentration at 504 h (Wistar Han rats, 400 mg/mL solution AA (6.25% poloxamer 188), 504 h, Mean n = 4): 131 nM
concentration at 672 h [10]: 117 nM
concentration at 672 h [11]: 130 nM
concentration at 840 h [10]: 118 nM
concentration at 840 h [11]: 170 nM
concentration at 1008 h [10]: 103 nM
concentration at 1008 h [11]: 134 nM
concentration at 1344 h [10]: 77.1 nM
concentration at 1344 h [11]: 93 nM
concentration at 1680 h [10]: 63.8 nM
